According to ChEMBL document CHEMBL1139939, “Synthesis and biological activity of naphthalene analogues of phenstatins: naphthylphenstatins” (Bioorg Med Chem Lett, 2007):
pIC50: −log10 of the molar value.

Columns and labels:
HT-29 = test: Cytotoxicity against human HT29 cells; assay type: functional, cell-based
HeLa = test: Cytotoxicity against human HeLa cells; assay type: functional, cell-based
Tubulin (Homo sapiens) [1] = target: T1, Tubulin (Homo sapiens) (UniProt P68371+Q9H4B7+P0DPH7+P68366+Q13509+Q71U36+P04350+Q3ZCM7+P07437+P68363+Q9BQE3+Q6PEY2+Q13885+Q9BVA1+Q9BUF5); test: Inhibition of tubulin polymerization at 20 uM; assay type: protein-complex assay
A549 = test: Cytotoxicity against human A549 cells; assay type: functional, cell-based
Tubulin (Homo sapiens) [2] = target: T1, Tubulin (Homo sapiens); test: Inhibition of tubulin polymerization at 40 uM; assay type: protein-complex assay

SMILES | pIC50 (HT-29) | pIC50 (HeLa) | inhibition (Tubulin (Homo sapiens) [1]) [%] | pIC50 (A549) | inhibition (Tubulin (Homo sapiens) [2]) [%]
COc1ccc(/C=C\c2cc(OC)c(OC)c(OC)c2)cc1O [COMBRETASTATIN A4] | 8.52 |  |  |  | 
COc1ccc(C(O)c2ccc3ccccc3c2)c(OC)c1OC (centres undefined) | < 5.00 | < 5.00 | 0 | < 5.00 | 
COc1ccc(C(OC(C)=O)c2ccc3ccccc3c2)c(OC)c1OC (centres undefined) | < 5.00 | 5.57 | 26 | < 5.00 | 
COc1cc(C(=O)c2ccc3ccccc3c2)cc(OC)c1OC |  | 7.38 |  | 6.60 | 100
COc1cc(C(O)c2ccc3ccccc3c2)cc(OC)c1OC (centres undefined) |  |  |  |  | 0
COc1cc(C(OC(C)=O)c2ccc3ccccc3c2)cc(OC)c1OC (centres undefined) | < 5.00 | 5.42 | 5 | < 5.00 | 
COc1ccc(C(=O)c2ccc3ccccc3c2)c(OC)c1OC | < 5.00 | 5.77 | 4 | < 5.00 | 
COc1cc(/C=C\c2ccc3ccccc3c2)cc(OC)c1OC [NAPHTHYLCOMBRETASTATIN] | 7.70 | 7.70 |  | 7.70 | 
